Laboratory results taken from ChEMBL document CHEMBL1201862, “PubChem BioAssay data set” (2004).
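A five-concentration, 48-hour dose response in 96-well plates underlies each endpoint, interpolated linearly between surrounding concentrations. Here, GI50 denotes the concentration required for 50% inhibition of growth.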 Activity calls are given as the source filed them. No stated cut-off is given here; in the data, active = GI50 up to about 1.1 µM and inactive = higher.

Legend:
Experiment in all cases: NCI anticancer screen, dose series, 48 h
CCRF-CEM = system: CCRF-CEM
U-251 = system: U-251
UACC-62 = system: UACC-62
HL-60 = system: HL-60
OVCAR-8 = system: OVCAR-8
ACHN = system: ACHN
SF-295 = system: SF-295
SK-MEL-28 = system: SK-MEL-28
HCT-15 = system: HCT-15
SN12C = system: SN12C
RXF 393 = system: RXF 393
MOLT-4 = system: MOLT-4
OVCAR-3 = system: OVCAR-3
786-0 = system: 786-0
SF-268 = system: SF-268
HCT-116 = system: HCT-116
NCI-H226 = system: NCI-H226
HOP-62 = system: HOP-62
A498 = system: A498

| Structure (SMILES) | GI50 (CCRF-CEM) | GI50 (U-251) | GI50 (UACC-62) | GI50 (HL-60) | GI50 (OVCAR-8) | GI50 (ACHN) | GI50 (SF-295) | GI50 (SK-MEL-28) | GI50 (HCT-15) [µM] | GI50 (SN12C) | GI50 (RXF 393) | GI50 (MOLT-4) | GI50 (OVCAR-3) | GI50 (786-0) | GI50 (SF-268) | GI50 (HCT-116) | GI50 (NCI-H226) | GI50 (HOP-62) | GI50 (A498) |
| --- | --- | --- | --- | --- | --- | --- | --- | --- | --- | --- | --- | --- | --- | --- | --- | --- | --- | --- | --- |
| Nc1ccc2nc3n(c2c1)C(=O)c1ccccc1-3 | > 100 µM (inactive) | > 100 µM (inactive) | > 100 µM (inactive) | > 100 µM (inactive) | > 100 µM (inactive) | > 100 µM (inactive) | > 100 µM (inactive) | > 100 µM (inactive) | > 100 | > 100 µM (inactive) | > 100 µM (inactive) | > 100 µM (inactive) | > 100 µM (inactive) | > 100 µM (inactive) | > 100 µM (inactive) | > 100 µM (inactive) | > 100 µM (inactive) | – | – |
| CCOc1cc(C2SCC(=O)N2c2ccc(Oc3ccc(Cl)cc3)c(Cl)c2)ccc1O (stereo not given) | 13.7 µM (inactive) | 18.4 µM (inactive) | 16.4 µM (inactive) | 12.6 µM (inactive) | 17.7 µM (inactive) | 17.4 µM (inactive) | 18.9 µM (inactive) | 20 µM (inactive) | 19.6 | 33 µM (inactive) | – | 18.1 µM (inactive) | 14 µM (inactive) | 25 µM (inactive) | 15.4 µM (inactive) | 12.2 µM (inactive) | 15.6 µM (inactive) | 17.6 µM (inactive) | – |
| NC(=O)CCC(NC(=O)c1c2ccccc2nc2ccccc12)C(=O)O (stereo not given) | > 100 µM (inactive) | > 100 µM (inactive) | > 100 µM (inactive) | – | > 100 µM (inactive) | > 100 µM (inactive) | > 100 µM (inactive) | > 100 µM (inactive) | > 100 | > 100 µM (inactive) | – | > 100 µM (inactive) | > 100 µM (inactive) | > 100 µM (inactive) | > 100 µM (inactive) | > 100 µM (inactive) | > 100 µM (inactive) | > 100 µM (inactive) | > 100 µM (inactive) |
| O=C(OC[C@H]1C[C@H]2C(=O)CCC[C@H]2O1)c1ccccc1 | > 100 µM (inactive) | > 100 µM (inactive) | > 100 µM (inactive) | > 100 µM (inactive) | > 100 µM (inactive) | > 100 µM (inactive) | > 100 µM (inactive) | > 100 µM (inactive) | > 100 | > 100 µM (inactive) | – | > 100 µM (inactive) | > 100 µM (inactive) | > 100 µM (inactive) | > 100 µM (inactive) | > 100 µM (inactive) | > 100 µM (inactive) | > 100 µM (inactive) | > 100 µM (inactive) |
| OCCCCCCCCCCCOc1ccc(C2OCC3(CO2)COC(c2ccc(OCCCCCCCCCCCO)cc2)OC3)cc1 (stereo not given) | – | > 50 µM (inactive) | > 50 µM (inactive) | – | > 50 µM (inactive) | > 50 µM (inactive) | > 50 µM (inactive) | > 50 µM (inactive) | > 50 | > 50 µM (inactive) | – | > 50 µM (inactive) | > 50 µM (inactive) | > 50 µM (inactive) | > 50 µM (inactive) | > 50 µM (inactive) | 29.6 µM (inactive) | > 50 µM (inactive) | > 50 µM (inactive) |
| CNC1=C/C(=N/C2=CC(=N/C(=C\C#N)C(C)(C)O)/OC2(C)C)OC1(C)C | 3.08 µM (inactive) | 7.1 µM (inactive) | 7.91 µM (inactive) | 2.01 µM (inactive) | 9.84 µM (inactive) | 4.32 µM (inactive) | 23.9 µM (inactive) | 33.2 µM (inactive) | 5.31 | 14.5 µM (inactive) | – | 2.31 µM (inactive) | 32.4 µM (inactive) | 11.8 µM (inactive) | 4.31 µM (inactive) | 5.15 µM (inactive) | 20.8 µM (inactive) | 7.96 µM (inactive) | 30.9 µM (inactive) |
| CC(=O)OC1CC2(C)C(OC(C)=O)CC1C2(C)C (stereo not given) | > 100 µM (inactive) | > 100 µM (inactive) | > 100 µM (inactive) | > 100 µM (inactive) | > 100 µM (inactive) | > 100 µM (inactive) | > 100 µM (inactive) | > 100 µM (inactive) | > 100 | > 100 µM (inactive) | > 100 µM (inactive) | > 100 µM (inactive) | > 100 µM (inactive) | > 100 µM (inactive) | > 100 µM (inactive) | > 100 µM (inactive) | > 100 µM (inactive) | > 100 µM (inactive) | – |
| NCCCN1CCN(CCCNc2ccc3nnn4c5ccccc5c(=O)c2c34)CC1 | 9.91 µM (inactive) | 24 µM (inactive) | 15.4 µM (inactive) | 8.59 µM (inactive) | 20 µM (inactive) | 12.4 µM (inactive) | 16.8 µM (inactive) | > 100 µM (inactive) | 20.7 | 9.02 µM (inactive) | – | 9.51 µM (inactive) | 37.4 µM (inactive) | 9.06 µM (inactive) | 31.3 µM (inactive) | 6.73 µM (inactive) | – | 13.7 µM (inactive) | 18.6 µM (inactive) |
| COc1cccc2c1OC(c1ccc(Cl)cc1)C([N+](=O)[O-])=C2 (stereo not given) | 0.356 µM (active) | 2.38 µM (inactive) | 1.74 µM (inactive) | > 100 µM (inactive) | 1.93 µM (inactive) | 1.46 µM (inactive) | 3.1 µM (inactive) | 2.61 µM (inactive) | 1.81 | 2.35 µM (inactive) | 1.64 µM (inactive) | 1.49 µM (inactive) | 2.54 µM (inactive) | 1.84 µM (inactive) | 3.18 µM (inactive) | 1.35 µM (inactive) | – | 2.1 µM (inactive) | – |
| O=P(O)(O)c1ccc2c(c1)OCCOCCOCCOCCO2 | > 100 µM (inactive) | – | > 100 µM (inactive) | > 100 µM (inactive) | > 100 µM (inactive) | > 100 µM (inactive) | > 100 µM (inactive) | > 100 µM (inactive) | > 100 | > 100 µM (inactive) | – | > 100 µM (inactive) | – | > 100 µM (inactive) | > 100 µM (inactive) | > 100 µM (inactive) | > 100 µM (inactive) | > 100 µM (inactive) | > 100 µM (inactive) |
| O=S(=O)(O)c1cc(O)c(/N=N/c2ccc(O)cc2O)c2ccccc12 | 40.6 µM (inactive) | > 100 µM (inactive) | – | 80.5 µM (inactive) | 30.8 µM (inactive) | > 100 µM (inactive) | 61.8 µM (inactive) | > 100 µM (inactive) | 64 | > 100 µM (inactive) | > 100 µM (inactive) | 42.2 µM (inactive) | 27.2 µM (inactive) | > 100 µM (inactive) | 37.5 µM (inactive) | 36.6 µM (inactive) | 3.17 µM (inactive) | 66.7 µM (inactive) | – |
| COc1ccc(-n2sc3ncccc3c2=O)cc1 | 8.32 µM (inactive) | 23.1 µM (inactive) | 36.4 µM (inactive) | 3.58 µM (inactive) | 26.8 µM (inactive) | 19.4 µM (inactive) | > 100 µM (inactive) | 23.6 µM (inactive) | 22.6 | 38.2 µM (inactive) | – | 8.18 µM (inactive) | 23 µM (inactive) | 15.9 µM (inactive) | 24.7 µM (inactive) | 17.7 µM (inactive) | 39.4 µM (inactive) | 23.1 µM (inactive) | – |
